In patent US20220064214A1, “NOVEL PEPTIDES AND USES THEREOF” (CENNA BIOSCIENCES INC., priority 2019, published 2022):
Several values for one entry are separate records, joined by “and”; a condition that tells them apart may be missing. Identical values can stand only once. Marks after values point to notes of the source that are not given here. Each block holds one compound with its values, some of them ahead of it. Square brackets hold non-standard residues; d marks the D form. Peptide text beside a SMILES is read from it.

Assays:
Aβ40 = experiment: Efficacy in reducing Aβ40 in rat plasma (ELISA); assay type: in vivo; settings: 10 mg/kg SC; for reduction in Aβ40: rat plasma; for Percent Decrease in Aβ 40 in Rat Plasma: mean of 3 rats, negative = decrease
Description: (§1) Blood was collected through jugular vein cannulas, and the samples were collected into tubes with K2EDTA. After centrifuging at a temperature of 2 to 8° C. at 4,000×g for 5 minutes, the resulting plasma was split into equal aliquots, frozen, and stored at −60 to −80° C. One aliquot was for PK analysis and the other was for Aβ analysis (see Example 4).
Rats (n=3 per peptide) were administered with P8, 8M1D, or 8M2D (10 mg/kg) subcutaneously, and plasma were collected at 0, 6, 12, and 24 h after dosing and Aβ40 analysis was carried out by ELISA (Invitrogen).

[1] = Metabolic stability of peptides in fresh human plasma (LC/MS/MS); assay type: in vitro ADME; settings: for rate at which metabolized in fresh human plasma (in words): compared among P8, 8M1 and 8M1D; for % Remaining / remaining at 3 h, 1 µM / remaining at 8 h, 1 µM / remaining at 24 h, 1 µM: fresh human plasma; for % Remaining: 0 h incubation; for remaining at 3 h, 1 µM: 3 h incubation; for remaining at 8 h, 1 µM: 8 h incubation; for remaining at 24 h, 1 µM: 24 h incubation
Description: P8, 8M1, and 8M1D were generated according to Example 1 with purities ranging from 98.0% to 99.0%. A primary 1.00 mM stock solution was prepared in either acetonitrile or acetonitrile:water (1:1, v/v) for each peptide. A 0.200 mM working stock was made from the primary stock in acetonitrile:water (1:1, v/v), which was used for the reactions. The primary and working stock solutions were stored at −20° C. when not in use, and they were kept at room temperature for as short a time as possible when in use. Fresh human plasma were maintained by adding sodium heparin as an anticoagulant.
The incubation procedures started when 5.00 μL of 0.2 mM (working stock solutions) of different peptides were added to 0.995 mL of fresh human plasma in a 1.7-mL snap tube. After 3, 8 and 24 hours of incubation, duplicate 50.0 μL aliquots of plasma were removed and placed into extraction tubes containing 150 μL of methanol, which served to quench any reactions, and thus incubations were ended. For each time point, the aliquotes were immediately extracted by vortex mixing and centrifugation. Resulting supernates were stored in High-Performance Liquid Chromatography (HPLC) vials and analyzed by LC/MS/MS after all samples were extracted. Valacyclovir was used as a positive control.
LC/MS/MS analysis of the incubation solutions was conducted by initial separation of the test article peaks using chromatography prior to detection by the mass spectrometer. The LC/MS system was comprised of a HPLC coupled with a TQS-Micro or Quattro Premier (Waters, Milford, Mass.). The mobile phase was nebulized using heated nitrogen in a Z spray source/interface set to electrospray in positive ionization mode for the peptides. The ionized peptides were detected using Tandem Quadropole Mass Spectrometry (MS/MS). The data was acquired using MassLynx (Waters, Milford, Mass.).
HPLC for the peptides and Valacyclovir control were performed with no guard columns, with a flow rate at 0.3 mL/min, with column temperature at 40° C., and autosampler temperature at 10° C. The column for peptides was MacMod ACE 2 Excel C18PFP, 100×2.1-mm, 2.0 μm, and the column for the control was Waters Atlantis T3, 150×2.1-mm, 5.0 μm. The injection loop and volumn for peptides were 50.0 μL and 20.0 μL respectively, and the ones for controls were 20.0 μL and 2.00 μL. For the Mass Spectrometer for the peptides and the Valacyclovir control, the source temperature was set to be 150° C., desolvation temperature was set to be 350° C., and polarity was set to be positive mode of electrospray ionization. Other parameters in HPLC and Mass Spectrometer are shown in Table 2.1, Table 2.2 and Table 3 below.

[2] = Pharmacokinetics study in rats, plasma; assay type: in vivo; settings: rat; for plasma concentration: individual rats
Description: (§2) An in-vivo study was carried out in rats to determine the pharmacokinetics (PK) of peptides P8, 8M1D and 8M2D in plasma and CSF. Each peptide was assessed through two dosage routes, intravenous (IV) and subcutaneous (SC). Three rats were assigned to each dose group with each peptide. Total of twelve rats per peptide were used.
as §1

[3] = Pharmacokinetics study in rats, CSF; assay type: in vivo; set-up: CSF concentration, Mean IV / CSF concentration, Mean SC: unit not given here; settings: rat; for CSF concentration, Mean IV: 10 mg/kg IV; for CSF concentration, Mean SC: 10 mg/kg SC
Description: as §2
CSF collection was performed by first anesthetizing animals at specified time points (see Table 5) with a mixture of 80 mg/kg ketamine and 8 mg/kg xylazine. The depth of anesthesia was monitored by toe pinches. CSF was collected via the cisterna magna (˜0.05 mL), and it was split into equal aliquots, frozen, and stored at −60 to −80° C.

γ-secretase = settings: phase III clinical trial, cited from earlier work
[4] = 10 mg/kg IV and SC, at Cmax and most subsequent time points

stability in fresh human plasma (in words) [1]: relatively stable
rate at which metabolized in fresh human plasma (in words) [1]: slowest
% Remaining [1]: 100%
remaining at 3 h, 1 µM [1]: 115%
remaining at 8 h, 1 µM [1]: 100%
remaining at 24 h, 1 µM [1]: 89.6%
exposure in plasma compared with P8 (in words) [2, 4]: better exposures than P8
plasma concentration ([2]; 10 mg/kg IV, 0 hr (pre-dose)): BQL
plasma concentration ([2]; 10 mg/kg IV, 0.167 hr, 10 mg/kg, in ng/mL (unit assumed)): 25,600 and 23,000 and 20,200
plasma concentration ([2]; 10 mg/kg IV, 0.5 hr, 10 mg/kg, in ng/mL (unit assumed)): 7,140 and 8,630 and 6,650
plasma concentration ([2]; 10 mg/kg IV, 1 hr, 10 mg/kg, in ng/mL (unit assumed)): 1,680 and 2,160 and 1,580
plasma concentration ([2]; 10 mg/kg IV, 2 hr, 10 mg/kg, in ng/mL (unit assumed)): 215 and 360 and 290
plasma concentration ([2]; 10 mg/kg IV, 4 hr, 10 mg/kg, in ng/mL (unit assumed)): 25.6 and 16.0 and 17.0
plasma concentration ([2]; 10 mg/kg IV, 6 hr, 10 mg/kg): 2.93 ^b and 0.805 ^b and 1.48 ^b
plasma concentration ([2]; 10 mg/kg IV, 8 hr): BQL
plasma concentration ([2]; 10 mg/kg IV, 12 hr): BQL
plasma concentration ([2]; 10 mg/kg IV, 24 hr): BQL
plasma concentration ([2]; 10 mg/kg SC, 0 hr (pre-dose)): BQL
plasma concentration ([2]; 10 mg/kg SC, 0.167 hr, 10 mg/kg): 20,500 ^a and 19,100 and 25,900
plasma concentration ([2]; 10 mg/kg SC, 0.5 hr, 10 mg/kg): 12,300 ^a and 10,900 and 11,800
plasma concentration ([2]; 10 mg/kg SC, 1 hr, 10 mg/kg, in ng/mL (unit assumed)): 5,440 and 4,310 and 3,410
plasma concentration ([2]; 10 mg/kg SC, 2 hr, 10 mg/kg, in ng/mL (unit assumed)): 1,330 and 1,570 and 642
plasma concentration ([2]; 10 mg/kg SC, 4 hr, 10 mg/kg, in ng/mL (unit assumed)): 49.8 and 75.3 and 43.9
plasma concentration ([2]; 10 mg/kg SC, 6 hr, 10 mg/kg): 11.4 and 8.83 ^b and 4.66 ^b
plasma concentration ([2]; 10 mg/kg SC, 8 hr, 10 mg/kg): 1.29 ^b and BQL (2×)
plasma concentration ([2]; 10 mg/kg SC, 12 hr): BQL
plasma concentration ([2]; 10 mg/kg SC, 24 hr): BQL
time after dosing at which detectable in CSF ([3]; 10 mg/kg IV and SC): ≥ 8 h
exposure in CSF compared with P8 (in words) [3, 4]: better exposures than P8
CSF concentration, Mean IV ([3]; 0 hr): 0
CSF concentration, Mean IV ([3]; 0.5 hr): 67.8
CSF concentration, Mean IV ([3]; 1 hr): 80.8
CSF concentration, Mean IV ([3]; 2 hr): 65
CSF concentration, Mean IV ([3]; 4 hr): 23.4
CSF concentration, Mean IV ([3]; 8 hr): 0.913
CSF concentration, Mean IV ([3]; 12 hr): 0
CSF concentration, Mean IV ([3]; 24 hr): 0.261
CSF concentration, Mean SC ([3]; 0 hr): 0
CSF concentration, Mean SC ([3]; 0.5 hr): 50.9
CSF concentration, Mean SC ([3]; 1 hr): 66.1
CSF concentration, Mean SC ([3]; 2 hr): 62.9
CSF concentration, Mean SC ([3]; 4 hr): 18.9
CSF concentration, Mean SC ([3]; 8 hr): 3.85
CSF concentration, Mean SC ([3]; 12 hr): 0
CSF concentration, Mean SC ([3]; 24 hr): 0
Compound: CC(C)C[C@H](NC(=O)[C@H](CCC(=O)O)NC(=O)[C@H](CCC(=O)O)NC(=O)[C@H](CC(=O)O)NC(=O)[C@H](CCC(=O)O)NC(=O)[C@H](CCC(=O)O)NC(=O)[C@H](CCC(=O)O)NC(=O)[C@H](N)CC(=O)O)C(N)=O [8M1D, dEEEDEEL-NH2] (H-[dD]EEEDEEL-NH2)
reduction in Aβ40 (Aβ40; 12 hr post dosing): about 27%
reduction in Aβ40 (Aβ40; 24 h post dosing): about 19%
Percent Decrease in Aβ 40 in Rat Plasma (Aβ40; 0 h): 0.00%
Percent Decrease in Aβ 40 in Rat Plasma (Aβ40; 6 h): −23.61%
Percent Decrease in Aβ 40 in Rat Plasma (Aβ40; 12 h): −27.34%
Percent Decrease in Aβ 40 in Rat Plasma (Aβ40; 24 h): −19.13%

Compound: CC(C)[C@H](O)C(=O)N[C@@H](C)C(=O)N[C@@H]1C(=O)N(C)CCc2ccccc21 [semagacestat]
functional ability (in words) (γ-secretase; patients receiving the higher dose): significant worsening of functional ability
effect on improving cognitive functions (in words) (γ-secretase; patients): no effects on improving cognitive functions
adverse events (in words) (γ-secretase): more adverse events including skin cancers and infections

rate at which metabolized in fresh human plasma (in words) [1]: fastest
% Remaining [1]: 100%
remaining at 3 h, 1 µM [1]: 87.1%
remaining at 8 h, 1 µM [1]: 65.1%
remaining at 24 h, 1 µM [1]: 47.1%
Compound: H-DEEEDEEL-NH2 [8M1, DEEEDEEL-NH2]
